Tests used:
Solubility in DMSO = type: physicochemical; settings: order SJ-2<SJ-24<SJ-3<SJ-11
Excerpt: The solubility of the four compounds in DMSO is poor, SJ-2<SJ-24<SJ-3<SJ-11, and therefore it is estimated and this is the reason why the three compounds which have previously proven to be effective against PC-3 cell line by SRB assays are ineffective in this experiment.

60 cancer cell lines = test: NCI five-dose level screening test, second stage (GI50, TGI, LC50); type: cell-based; settings: for Subpanel MID^b (average sensitivity of all cell line of a particular subpanel) / MID^a (average sensitivity of all cell line): GI50; for MID^a (average sensitivity of all cell line): all cell lines
Excerpt: From the results, compounds SJ-3 (NSC 772864) and SJ-10 (NSC 772862) were selected by NCI for a five-dose level screening test and the mean growth percentage of the 60 cancer cell lines for the two compounds are 62.4 and −14.37, respectively. […] A summary of the NCI data provides information on the inhibition effect of various compound in different cancer cell lines (FIGS. 3 to 16 and Tables 3 to 8). […] Table 9 indicates the GI50, TGI and LC50 of the NCI data of TC-XCl, SJ-3 and SJ-10 NCI.

[1] = Non-Small Cell Lung Cancer subpanel

SMILES	solubility in DMSO (Solubility in DMSO)	Selectivity ratio (MID^a:MID^b) (60 cancer cell lines; Breast Cancer subpanel)	Subpanel MID^b (average sensitivity of all cell line of a particular subpanel) (60 cancer cell lines; Breast Cancer subpanel) [µM]	Selectivity ratio (MID^a:MID^b) (60 cancer cell lines; CNS Cancer subpanel)	Subpanel MID^b (average sensitivity of all cell line of a particular subpanel) (60 cancer cell lines; CNS Cancer subpanel) [µM]	Selectivity ratio (MID^a:MID^b) (60 cancer cell lines; Colon Cancer subpanel)	Subpanel MID^b (average sensitivity of all cell line of a particular subpanel) (60 cancer cell lines; Colon Cancer subpanel) [µM]	Selectivity ratio (MID^a:MID^b) (60 cancer cell lines; Leukemia subpanel)	Subpanel MID^b (average sensitivity of all cell line of a particular subpanel) (60 cancer cell lines; Leukemia subpanel) [µM]	Selectivity ratio (MID^a:MID^b) (60 cancer cell lines; Melanoma subpanel)	Subpanel MID^b (average sensitivity of all cell line of a particular subpanel) (60 cancer cell lines; Melanoma subpanel) [µM]	Selectivity ratio (MID^a:MID^b) (60 cancer cell lines; [1])	Subpanel MID^b (average sensitivity of all cell line of a particular subpanel) (60 cancer cell lines; [1]) [µM]	Selectivity ratio (MID^a:MID^b) (60 cancer cell lines; Ovarian Cancer subpanel)	Subpanel MID^b (average sensitivity of all cell line of a particular subpanel) (60 cancer cell lines; Ovarian Cancer subpanel) [µM]	Selectivity ratio (MID^a:MID^b) (60 cancer cell lines; Prostate Cancer subpanel)	Subpanel MID^b (average sensitivity of all cell line of a particular subpanel) (60 cancer cell lines; Prostate Cancer subpanel) [µM]	Selectivity ratio (MID^a:MID^b) (60 cancer cell lines; Renal Cancer subpanel)	Subpanel MID^b (average sensitivity of all cell line of a particular subpanel) (60 cancer cell lines; Renal Cancer subpanel) [µM]	MID^a (average sensitivity of all cell line) (60 cancer cell lines) [µM]
CN(C)c1nc2ccccc2c2c1-c1ccc(Cl)cc1C2=O [SJ-2, 9-Chloro-6-(dimethylamino)-11H-indeno[1,2-c]quinolin-11-one]	poor																			
CCN(CC)CCNc1nc2ccccc2c2c1-c1ccc(Cl)cc1C2=O [SJ-3, 6-(2-(Diethylamino)ethylamino)-9-chloro-11H-indeno[1,2-c]quinolin-11-one]	poor	1.159	12.345	0.962	14.875	0.778	18.400	1.475	9.696	0.914	15.654	1.210	11.819	0.820	17.448	0.914	15.650	1.124	12.733	14.306
O=C1c2cc(Cl)ccc2-c2c(N3CCNCC3)nc3ccccc3c21 [SJ-10, 9-Chloro-6-(piperazin-1-yl)-11H-indeno[1,2-c]quinolin-11-one]		1.541	6.813	1.304	8.053	1.075	9.763	0.954	11.000	0.528	19.894	1.621	6.477	0.772	13.591	1.959	5.360	1.648	6.370	10.498

— patent US20150197492A1, “NOVEL INDENO[1,2-c]QUINOLIN-11-ONE DERIVATIVES, PREPARATION METHOD AND APPLICATION THEREOF” (National Defense Medical Center, priority 2014, published 2015)
